Measured values published in publication PMC4535766, “Antiprotozoal Activity Profiling of Approved Drugs: A Starting Point toward Drug Repositioning” (PLoS ONE, 2015).
Where a name gives a salt, the structure may show the parent alone. Read-outs that look alike come from different tables or passages of the source.

Tests used:
[1] = tested on: T. b. rhodesiense strain STIB 900, trypomastigotes; assay: In vitro activity against T. b. rhodesiense, serial drug dilution assay; details: for IC50: Trypanosoma brucei; for Activity against T. b. rhodesiense (in words): in vitro
Method: (§1) Drug stock solutions (10mg/ml) were in DMSO (100%). […] Selectivity index (SI) was calculated as IC50 L6 cells/IC50 parasite.

in vitro = details: rat
Method: as §1

[2] = tested on: T. cruzi, strain Tulahuen C4, intracellular amastigotes; assay: microbe, parasite or virus in culture; details: for IC50: Trypanosoma cruzi, TULAHUEN; for selectivity ratio: rat, Selectivity index: IC50 Cytotoxicity L6/ IC50 T. cruzi
Method: as §1

[3] = tested on: axenic amastigotes of L. donovani, strain MHOM-ET-67/L82; assay: In vitro activity against L. donovani axenic amastigotes, serial drug dilution assay; assay type: cell-based, Leishmania donovani
Method: as §1

[4] = tested on: intracellular amastigotes of L. donovani strain MHOM-ET-67/L82; assay: Activity against Leishmania donovani intracellular amastigotes in mouse peritoneal macrophages; details: for IC50: Leishmania donovani, Peritoneal macrophage, in Mus musculus
In short: (§2)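 Axenic amastigotes grown at pH 5.4 infected mouse peritoneal macrophages for 4 h before free parasites were washed off. Next day, seven 3-fold drug dilutions (30–0.04 μg/ml) were added for 96 h. Giemsa-stained infected macrophages were counted, burden reduction was taken vs untreated controls, and IC50 came from linear regression.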

[5] = Cytotoxicity on macrophages infected with L. donovani; assay type: cell-based, mouse; details: mouse
Method: (§3) After 24 h 1.2 x 10^5 amastigote L. donovani in 100 μl were added. The amastigotes were taken from an axenic culture grown at pH 5.4. Four hours later, the medium containing free amastigote forms was removed and replaced by fresh medium. The next day the medium was replaced by medium with or without a serial drug dilution of seven 3-fold dilution steps covering a range from 30 to 0.04 μg/ml. Parasite growth in the presence of the drug was compared to control wells. After 96 h of incubation, the medium was removed and the slides fixed with methanol for 10 min followed by staining with a 10% Giemsa solution. Infected and non-infected macrophages were counted for the control cultures and those exposed to the serial drug dilutions. The infection rates were determined. The results were expressed as a percentage reduction in parasite burden compared to control wells, and the IC50 was calculated by linear regression analysis.

[6] = In vitro cytotoxicity with mouse peritoneal macrophages (Alamar Blue); assay type: cell-based
Method: After 96 h of incubation, the plates were inspected under an inverted microscope to assure sterility. […] The IC50 values were calculated by linear regression from the sigmoidal dose inhibition curves using SoftmaxPro software (Molecular Devices Cooperation, Sunnyvale, CA, USA).

[7] = tested on: L. donovani strain MHOM-ET-67/L82 amastigotes; assay: in vitro; details: mouse
In short: as §2

P. falciparum strain K1 = assay: In vitro activity against P. falciparum, serial drug dilution assay; details: for Activity against P. falciparum (in words): in vitro; for IC50: Plasmodium falciparum; for selectivity ratio: rat
Method: as §1

[8] = tested on: macrophages infected with L. donovani; assay: Cytotoxicity on macrophages infected with L. donovani; assay type: cell-based, mouse; details: mouse, 96 h
Method: as §3

[9] = Leishmania donovani, axenic amastigotes, strain MHOM-ET-67/L82, means of two independent assays, read-out: IC50 L. don. axen.
[10] = 96 h, read-out: IC50 L. don. intracell
[11] = macrophages infected with L. donovani, read-out: IC50 Cytotox. mac.inf.
[12] = axenic amastigotes, strain MHOM-ET-67/L82, means of two independent assays, read-out: IC50 L. don. axen.
[13] = Selectivity index: IC50 Cytotoxicity macrophages/ IC50 L. donovani
[14] = Leishmania donovani, L. donovani axenic amastigotes, read-out: L. don. axen. IC50
[15] = read-out: L. don. intracell IC50
[16] = infected macrophages, read-out: Cytotox. mac.inf. IC50
[17] = mouse peritoneal macrophages versus L. donovani amastigotes, Selectivity index: IC50 Cytotoxicity macrophages/ IC50 L. donovani, axenic or intracellular IC50 not specified
[18] = Selectivity index: IC50 Cytotoxicity L6/ IC50 P. falciparum
[19] = L6 cells, IC50 Cytotox. L6, L6 cells, means of two independent assays

| Compound | IC50 ([1]; read-out: IC50 T. b. rhod.) [µM] | IC50 (in vitro; IC50 Cytotox. L6) [µM] | IC50 ([2]; read-out: IC50 T. cruzi) [µM] | IC50 [3, 9] [µM] | IC50 [4, 10] [µM] | IC50 at 96 h [5, 11] [µM] | IC50 at 96 h ([6]; mouse) [µM] | selectivity ratio at 96 h [7, 13] | IC50 ([1]; read-out: T. b. rhod. IC50) [µM] | IC50 ([2]; read-out: T. cruzi IC50) [µM] | IC50 (P. falciparum strain K1; K1, read-out: IC50 P. falc. K1) [µM] | selectivity ratio (P. falciparum strain K1; [18]) | other results |
| --- | --- | --- | --- | --- | --- | --- | --- | --- | --- | --- | --- | --- | --- |
| N=C(N)c1ccc(OCCCCCOc2ccc(C(=N)N)cc2)cc1 [Pentamidine] | 0.01 | 8.87 | 4.44 | 19.8 | 2.63 | > 29.4 | 7.78 |  |  |  |  |  | Activity against T. b. rhodesiense (in words) [1]: active; selectivity ratio ([1]; rat): 887 |
| O=C1CN(/N=C/c2ccc([N+](=O)[O-])o2)C(=O)N1 [Nitrofurantoine] | 0.5 | 90.3 | 4.35 | < 3 | > 41.8 | 125 |  | 59 |  |  |  |  | Selectivity index: IC50 Cytotoxicity L6/ IC50 T. b. rhodesiense ([1]; rat): 181; selectivity ratio ([1]; rat, Selectivity index: IC50 Cytotoxicity L6/ IC50 T. b. rhodesiense): 180; selectivity ratio [2]: 21; IC50 [3, 12]: 2.12 µM |
| COc1cc(NC(C)CCCN)c2ncccc2c1 (stereo not shown) [Primaquine] |  |  |  |  |  |  |  |  | 4.78 | 17.9 |  |  | IC50 (in vitro): 43.2 µM; IC50 [3, 14]: 48.6 µM; IC50 [4, 15]: 28.2 µM; IC50 at 96 h [5, 16]: > 38.6 µM; IC50 at 96 h ([6]; peritoneal mouse macrophages, read-out: Cytotox. PMM IC50): 39.7 µM |
| Clc1ccccc1C(c1ccccc1)(c1ccccc1)n1ccnc1 [Clotrimazole] |  | 2.99 |  |  |  |  | 32.5 |  |  |  |  |  | Activity against L. donovani intracellular amastigotes (in words) [4]: active with low selectivity; Activity against P. falciparum (in words) (P. falciparum strain K1): active |
| Cc1c(C)c2c(c(C)c1O)CCC(C)(COc1ccc(CC3SC(=O)NC3=O)cc1)O2 (stereo not shown) [Troglitazone] |  |  |  | 4.26 | > 67.9 | > 68 |  |  | 59.3 | 32.6 |  |  | IC50 (in vitro; Cytotox. L6 IC50): 80.6 µM; selectivity ratio at 96 h [7, 17]: > 16; IC50 (P. falciparum strain K1; K1, read-out: P. falc. IC50): 7.27 µM; IC50 at 96 h [5, 16]: > 67.9 µM |
| Clc1ccc(C(Cn2ccnc2)OCc2ccsc2Cl)c(Cl)c1 (stereo not shown) [Tioconazole] | 29.9 | 19.5 | 0.064 | 9.26 | 13.1 |  | 51.1 |  |  |  | 0.63 | 31 | Activity against L. donovani intracellular amastigotes (in words) [4]: active with low selectivity; Activity against P. falciparum (in words) (P. falciparum strain K1): active |
| Cc1cccc(N(C)C(=S)Oc2ccc3ccccc3c2)c1 [Tolnaftate] |  |  |  | 4.33 | 50.1 | > 97.6 |  | > 23 | 69.3 | 20 |  |  | IC50 (in vitro; Cytotox. L6 IC50): 84.6 µM; IC50 (P. falciparum strain K1; K1, read-out: P. falc. IC50): 19 µM; IC50 at 96 h [5, 16]: > 97.6 µM |
| O=C(Nc1ccc([N+](=O)[O-])cc1Cl)c1cc(Cl)ccc1O [Niclosamide] | 1.67 | 2.3 | 2.49 | 0.15 | > 0.31 |  |  |  |  |  | 1.14 |  | Activity against intracellular amastigotes at a fixed concentration ([4]; at a concentration of 0.1 μg/ml): inactive; MCC at 96 h [5, 11]: 1.01 µM; Concentrations toxic to mouse macrophages [8]: > 300 ng/mL |
| CCN(CC)CCCCCCNc1cc(OC)cc2c(C)ccnc12 [Sitamaquine] |  |  |  |  |  |  | 21.4 |  | 7.39 | 22 | 0.08 | 404 | IC50 (in vitro; [19]): 32.3 µM; Activity against L. donovani axenic amastigotes (in words) [3]: moderate activity; IC50 [3, 14]: 13.7 µM; Activity against L. donovani intracellular amastigotes (in words) [4]: moderate activity; IC50 [4, 15]: 19.5 µM; IC50 at 96 h ([5]; mouse peritoneal macrophages infected with L. donovani, infected macrophages, read-out: Cytotox. mac.inf. IC50): > 29.1 µM |
| Clc1ccc(COC(Cn2ccnc2)c2ccc(Cl)cc2Cl)cc1 (stereo not shown) [Econazole (Nitrate salt), Econazole] |  | 15.6 |  |  |  |  | 22.8 |  |  |  |  |  | Activity against P. falciparum (in words) (P. falciparum strain K1): active |
| Clc1ccc(COC(Cn2ccnc2)c2ccc(Cl)cc2Cl)c(Cl)c1 (stereo not shown) [Miconazole (Nitrate salt), Miconazole] |  | 15.4 |  |  |  |  | 23.9 |  |  |  |  |  | Activity against P. falciparum (in words) (P. falciparum strain K1): active |
| CC(C)/N=c1\cc2n(-c3ccc(Cl)cc3)c3ccccc3nc-2cc1Nc1ccc(Cl)cc1 [Clofazimine] |  |  |  | 22.4 | 0.95 | 6.34 | 10.7 | ~10 | 7.63 | 38.2 |  |  | IC50 (in vitro; Cytotox. L6 IC50): 9.97 µM; IC50 (P. falciparum strain K1; K1, read-out: P. falc. IC50): 4.1 µM |
| CO[C@H]1/C=C/O[C@@]2(C)Oc3c(C)c(O)c4c(O)c(c(/C=N/N5CCN(C)CC5)c(O)c4c3C2=O)NC(=O)/C(C)=C\C=C\[C@H](C)[C@H](O)[C@@H](C)[C@@H](O)[C@@H](C)[C@H](OC(C)=O)[C@@H]1C [Rifampicin] |  | 75.2 |  | < 3 | > 36.5 | > 36.5 |  | > 24 | 16.7 | > 109 | 0.1 |  | Activity against T. b. rhodesiense (in words) [1]: devoid of antitrypanosomal activity; IC50 [3, 12]: 1.53 µM; IC50 at 96 h [5, 16]: > 36.5 µM |
| O=C(N/N=C/c1ccc([N+](=O)[O-])o1)c1ccc(O)cc1 [Nifuroxazide] | 0.03 | 12.3 | 0.23 | < 3 | > 10.9 | 36.2 |  | 13 |  |  | 7.82 |  | selectivity ratio ([1]; rat): 410; selectivity ratio [2]: 54; IC50 [3, 12]: 2.83 µM |
| C[C@@H]1[C@H](O)[C@@H](C)/C=C/C=C/C=C/C=C/C=C/C=C/C=C/[C@H](O[C@@H]2O[C@H](C)[C@@H](O)[C@H](N)[C@@H]2O)C[C@@H]2O[C@](O)(C[C@@H](O)C[C@@H](O)[C@H](O)CC[C@@H](O)C[C@@H](O)CC(=O)O[C@H]1C)C[C@H](O)[C@H]2C(=O)O [Amphotericin B] | 0.76 |  | 56.7 | 0.34 | 0.31 | 32.4 | 22.4 |  |  |  | 0.8 |  | selectivity ratio ([1]; rat): 14; IC50 (in vitro): 10.3 µM; selectivity ratio at 96 h [7]: 95; selectivity ratio (P. falciparum strain K1): 13 |
| NC(=O)c1cnccn1 [Pyrazinamide] | > 812 | 458 | 565 | > 812 | > 244 | > 244 |  |  |  |  | 179 |  |  |
| CO[C@H]1/C=C/O[C@@]2(C)Oc3c(C)c(O)c4c(O)c(cc(O)c4c3C2=O)NC(=O)/C(C)=C\C=C\[C@H](C)[C@H](O)[C@@H](C)[C@@H](O)[C@@H](C)[C@H](OC(C)=O)[C@@H]1C [Rifamycin SV (Sodium salt), Rifamycin SV] | 0.99 | 15.7 |  | < 3 | > 13.9 | 41.6 |  |  |  | 50 | 0.55 | 29 | selectivity ratio ([1]; rat, L6 cells versus T. b. rhodesiense STIB 900 trypomastigotes): 16; IC50 [3, 12]: 1.5 µM; selectivity ratio at 96 h [7, 17]: 28 |
| C[C@H]1[C@H](OC(=O)CCC(=O)O)O[C@@H]2O[C@@]3(C)CC[C@H]4[C@H](C)CC[C@@H]1[C@@]24OO3 [Artesunate] | 16.8 | 0.78 | 8.97 |  | > 7.8 | > 7.8 |  | > 22 |  |  | 0.003 | 260 | IC50 ([3]; axenic amastigotes, strain MHOM-ET-67/L82, means of two independent assays, listed as artesunate, read-out: IC50 L. don. axen.): < 3 µM; IC50 [3, 12]: 0.35 µM |
| Clc1ccc(C(OCCN2CCCCC2)c2ccccc2)cc1 (stereo not shown) [Cloperastine] | 4.91 |  | 9.46 | 265 | > 30.3 |  |  |  |  |  | 0.87 | 50 | IC50 (in vitro; [19]): 43.4 µM; Activity against P. falciparum (in words) (P. falciparum strain K1): selective activities; MCC at 96 h ([5]; mouse peritoneal macrophages infected with L. donovani, read-out: IC50 Cytotox. mac.inf.): 90.9 µM |
| COc1cc(C)c2c(Oc3cccc(C(F)(F)F)c3)c(OC)cc(NC(C)CCCN)c2n1 (stereo not shown) [Tafenoquine] | 1.42 |  | 6.11 | 17.9 | 2.16 |  |  |  |  |  | 0.27 | 20 | IC50 (in vitro; [19]): 5.52 µM; IC50 at 96 h ([5]; mouse peritoneal macrophages infected with L. donovani, macrophages infected with L. donovani, read-out: IC50 Cytotox. mac.inf.): 6.47 µM |
